Data reported in US20120289501A1, “Benzene-fused 6-membered oxygen-containing heterocyclic derivatives of bicyclic heteroaryls” (NOVARTIS AG, priority 2009, published 2012).

What follows are molecules tested against IGF1R (Homo sapiens, UniProt P08069) (assay: Cellular IGF-1R assay: inhibition of IGF1R phosphorylation in transduced Hek293 cells, capture ELISA (MSD)).
IGF1R, sequence (P08069 31-1367): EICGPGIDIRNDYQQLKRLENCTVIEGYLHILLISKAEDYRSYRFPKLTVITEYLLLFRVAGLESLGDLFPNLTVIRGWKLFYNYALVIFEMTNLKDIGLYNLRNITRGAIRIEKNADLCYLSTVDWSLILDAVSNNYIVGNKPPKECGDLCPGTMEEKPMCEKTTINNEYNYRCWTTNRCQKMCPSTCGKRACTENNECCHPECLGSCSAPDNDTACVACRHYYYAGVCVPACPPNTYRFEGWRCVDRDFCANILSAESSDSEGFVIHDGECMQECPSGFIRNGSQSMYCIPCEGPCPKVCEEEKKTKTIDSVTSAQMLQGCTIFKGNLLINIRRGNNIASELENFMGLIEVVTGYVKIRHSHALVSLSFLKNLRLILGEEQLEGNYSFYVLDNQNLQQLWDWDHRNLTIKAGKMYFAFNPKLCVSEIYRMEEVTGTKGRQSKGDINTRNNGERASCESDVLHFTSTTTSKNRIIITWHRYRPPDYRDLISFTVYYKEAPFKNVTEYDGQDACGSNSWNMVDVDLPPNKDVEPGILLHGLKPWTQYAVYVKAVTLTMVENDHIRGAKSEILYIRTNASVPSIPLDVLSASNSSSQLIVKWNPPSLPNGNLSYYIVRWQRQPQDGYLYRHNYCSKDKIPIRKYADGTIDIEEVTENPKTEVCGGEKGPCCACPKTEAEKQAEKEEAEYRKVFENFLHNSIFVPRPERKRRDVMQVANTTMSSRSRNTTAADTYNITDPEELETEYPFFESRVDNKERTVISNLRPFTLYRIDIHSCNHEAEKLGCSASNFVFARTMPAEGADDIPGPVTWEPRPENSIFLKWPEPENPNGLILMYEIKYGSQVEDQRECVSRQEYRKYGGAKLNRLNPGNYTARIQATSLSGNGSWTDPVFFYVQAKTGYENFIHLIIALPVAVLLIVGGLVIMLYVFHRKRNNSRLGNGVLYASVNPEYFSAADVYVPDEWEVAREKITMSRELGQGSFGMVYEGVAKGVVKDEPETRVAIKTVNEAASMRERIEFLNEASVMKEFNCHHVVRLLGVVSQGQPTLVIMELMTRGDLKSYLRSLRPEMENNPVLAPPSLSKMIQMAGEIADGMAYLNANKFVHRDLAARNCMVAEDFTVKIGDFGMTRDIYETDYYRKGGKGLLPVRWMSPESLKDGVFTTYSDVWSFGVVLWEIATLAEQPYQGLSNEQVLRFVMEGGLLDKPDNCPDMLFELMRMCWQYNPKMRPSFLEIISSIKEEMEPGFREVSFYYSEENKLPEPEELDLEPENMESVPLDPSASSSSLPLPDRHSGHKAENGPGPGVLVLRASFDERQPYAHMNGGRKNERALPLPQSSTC
Assay type: cell-based
Parameters: Hek293 cells transduced with the corresponding receptors; expressed in transfected cells; host or cells: Hek293 (Hek293-IGF1R)
Description: In this assay the activity of the compounds of the invention against Insulin-like growth factor I (IGF-1) induced autophosphorylation of the IGF-IR is determined. The assay is conducted as follows: Compound-mediated inhibition of IGF1R and INSR phosphorylation in Hek293 cells transduced with the corresponding receptors is assessed in a capture ELISA format using the MSD (Meso Scale Discovery) platform. Briefly, 30′000 cells washed and diluted in starvation medium (DMEM high glucose supplemented with 0.1% BSA) are seeded in 90 μL per well into 96-well plates pre-coated with poly-D-lysine (0.1 mg/mL in PBS/0). After 24 h incubation at 37° C. and 5% CO2, dose-response effects are determined with 3-fold serial compound dilutions, starting at 10 μM. The final vehicle concentration is 0.1% DMSO in all wells. Following pre-incubation with compounds for 1 h, receptor phosphorylation is triggered by a 10 min exposure to 1.0 ng/μL IGF for Hek293-IGF1R cells, and 5.0 ng/μL insulin for Hek293-InsR cells. Cell lysis is achieved by addition of 80 μL MSD lysis buffer per aspirated well, incubation on ice for 20 min, and a freeze-thaw cycle. Target phosphorylation is then assessed by transferring volumes corresponding to approx. 6 μg Hek293-IGF1R or 0.6 μg Hek293-InsR lysates to MSD assay plates pre-coated with total-IGF1R or total-InsR Abs, respectively. After incubation for 2 h at rt, wells are exposed for 1 hr to a rabbit monoclonal antibody (CST #3024, 1:1000) detecting pIGF1R(Tyr1135/1136) as well as pINSR(Tyr1150/1151). Immune complexes are detected by a SULFO-Tag™-coupled anti-rabbit IgG antibody in the presence of 150 μL MSD read-buffer. Light emission at 620 nm triggered by application of electric current is recorded on a MSD SectorImager 6000. Acquired raw data (mean Ru-ECL units) are processed in an Excel analysis template. The plate blank (MSD lysis buffer) is subtracted from all data points. The effect of a particular test compound concentration on receptor phosphorylation is expressed relative to the window defined by ligand-stimulated vs unstimulated control cells (set as 100%). IC50 values [nM] are determined using 4-parametric curve-fitting (XLfit software, V4.3.2). Alternatively, the assay can be conducted with a slightly different format; Compound-mediated inhibition of IGF-1R and InsR phosphorylation in HEK293 cells overexpressing the corresponding receptors were assessed by quantitative Western blot using an Odyssey infrared imager as readout.
Compound-mediated inhibition of IGF1R and INSR phosphorylation in Hek293 cells transduced with the corresponding receptors is assessed in a capture ELISA format using the MSD (Meso Scale Discovery) platform. Briefly, 30′000 cells washed and diluted in starvation medium (DMEM high glucose supplemented with 0.1% BSA) are seeded in 90 μL per well into 96-well plates pre-coated with poly-D-lysine (0.1 mg/mL in PBS/O). After 24 h incubation at 37° C. and 5% CO2, dose-response effects are determined with 3-fold serial compound dilutions, starting at 10 μM. The final vehicle concentration is 0.1% DMSO in all wells. Following pre-incubation with compounds for 1 h, receptor phosphorylation is triggered by a 10 min exposure to 1.0 ng/μL IGF for Hek293-IGF1R cells, and 5.0 ng/μL insulin for Hek293-InsR cells. Cell lysis is achieved by addition of 80 μL MSD lysis buffer per aspirated well, incubation on ice for 20 min, and a freeze-thaw cycle. Target phosphorylation is then assessed by transferring volumes corresponding to approx. 6 μg Hek293-IGF1R or 0.6 μg Hek293-lnsR lysates to MSD assay plates pre-coated with total-IGF1R or total-lnsR Abs, respectively. After incubation for 2 h at rt, wells are exposed for 1 hr to a rabbit monoclonal antibody (CST #3024, 1:1000) detecting pIGF1R(Tyr1135/1136) as well as pINSR(Tyr1150/1151). Immune complexes are detected by a SULFO-Tag™-coupled anti-rabbit IgG antibody in the presence of 150 μL MSD read-buffer. […]
Nc1ncnc2c1c(-c1ccc3c(c1)OC(c1ccccn1)CC3)cn2[C@H]1C[C@@](O)(CO)C1 (mixture of isomers) [Example 56, (±)-(E)-3-(4-amino-5-(2-(pyridin-2-yl)chroman-7-yl)-7H-pyrrolo[2,3-d]pyrimidin-7-yl)-1-(hydroxymethyl)cyclobutanol] was tested, and the IC50 was 548 nM. Molecule Nc1ncnc2c1c(-c1ccc3c(c1)OC(C1CCCO1)CC3)cn2C1CC(O)(CO)C1 (single isomer, unassigned) [Example 32, (I)-(E)-3-{4-Amino-5-[2-(tetrahydro-furan-2-yl)-chroman-7-yl]-pyrrolo[2,3-d]pyrimidin-7-yl}-1-hydroxymethyl-cyclobutanol] has an IC50 of 183 nM. With Nc1ncnc2c1c(-c1ccc3c(c1)OC(C1CCCO1)CC3)cn2C1CC(O)(CO)C1 (mixture of isomers) [Example 29, (E)-3-{4-Amino-5-[2-(tetrahydro-furan-2-yl)-chroman-7-yl]-pyrrolo[2,3-d]pyrimidin-7-yl}-1-hydroxymethyl-cyclobutanol] the IC50 was 50 nM. Nc1ncnc2c1c(-c1ccc3c(c1)OC(c1ccccc1)CC3)cn2[C@H]1C[C@@H](CN2[C@@H]3CC[C@H]2C[C@H](O)C3)C1 (mixture of isomers) [Example 36, (R,S)-8-{cis-3-[4-Amino-5-(2-phenyl-chroman-7-yl)-pyrrolo[2,3-d]pyrimidin-7-yl]-cyclobutylmethyl}-8-aza-bicyclo[3.2.1]octan-3-ol] was tested, and the IC50 was 87 nM. With Nc1nccn2c1c(-c1ccc3c(c1)OC(c1ccccc1)CC3)nc2[C@H]1C[C@@H](CO)C1 (mixture of isomers) [Example 3, (R,S)-{cis-3-[8-Amino-1-(2-phenyl-chroman-7-yl)-imidazo[1,5-a]pyrazin-3-yl]-cyclobutyl}-methanol] the IC50 was 76 nM. With Nc1ncnc2c1c(-c1ccc3c(c1)OC1(CCCCC1)CC3)cn2[C@H]1C[C@@H](CN2CCS(=O)(=O)CC2)C1 [Example 53, 7-(cis-3-(1,1-dioxo-thiomorpholin-4-ylmethyl)cyclobutyl)-5-(spiro[chroman-2,1′-cyclohexane]-7-yl)-7H-pyrrolo[2,3-d]pyrimidin-4-amine] the IC50 was 202 nM. For Nc1ncnc2c1c(-c1ccc3c(c1)OC(C1CCCO1)CC3)cn2C1CC(O)(CO)C1 (single isomer, unassigned) [Example 33, (u)-(E)-3-{4-amino-5-[2-(tetrahydro-furan-2-yl)-chroman-7-yl]-pyrrolo[2,3-d]pyrimidin-7-yl}-1-hydroxymethyl-cyclobutanol], the IC50 was 395 nM. Work on Nc1ncnc2c1c(-c1ccc3c(c1)OC(c1ccccc1)CC3)cn2C1CC(O)(CO)C1 (single isomer, unassigned) [Example 27] yielded an IC50 of 31 to 112 nM. Work on Nc1ncnc2c1c(-c1ccc3c(c1)OC(C1CCCO1)CC3)cn2[C@H]1CC[C@@H](N2CCS(=O)(=O)CC2)CC1 (mixture of isomers) [Example 65, (±)-7-[cis-4-(1,1-dioxo-1λ6-thiomorpholin-4-yl)-cyclohexyl]-5-[2-cis-(tetrahydro-furan-2-yl)chroman-7-yl]-7H-pyrrolo[2,3-d]pyrimidin-4-ylamine] yielded an IC50 of 39 nM. Nc1ncnc2c1c(-c1ccc3c(c1)OC(C1CCCO1)CC3)cn2C1CC(O)(CO)C1 (single isomer, unassigned) [Example 35] was tested, and the IC50 was 55 nM. Work on Nc1ncnc2c1c(-c1ccc3c(c1)OC(c1ccccn1)CC3)cn2[C@H]1C[C@@H](CN2CC[S+]([O-])CC2)C1 (mixture of isomers) [Example 63, (±)-7-(cis-3-(1-oxo-thiomorpholin-4-ylmethyl)cyclobutyl)-5-(2-(pyridin-2-yl)chroman-7-yl)-7H-pyrrolo[2,3-d]pyrimidin-4-amine] yielded an IC50 of 109 nM. Molecule Nc1ncnc2c1c(-c1ccc3c(c1)OC(C1CCCO1)CC3)cn2C1CC(CN2CCS(=O)(=O)CC2)C1 (single isomer, unassigned) [Example 30, (I)-7-[cis-3-(1,1-Dioxo-1-thiomorpholin-4-ylmethyl)-cyclobutyl]-5-[2-(tetrahydro-furan-2-yl)-chroman-7-yl]-7H-pyrrolo[2,3-d]pyrimidin-4-ylamine] has an IC50 of 4 to 5 nM. Work on Nc1ncnc2c1c(-c1ccc3c(c1)OC(c1ccccc1)CC3)cn2[C@H]1C[C@@]2(COC(=O)O2)C1 (stereo partly shown) [Example 43, (E)-2-[4-Amino-5-(2-phenyl-chroman-7-yl)-pyrrolo[2,3-d]pyrimidin-7-yl]-5,7-dioxa-spiro[3.4]octan-6-one] yielded an IC50 of 76 nM. Molecule Nc1nccn2c1c(-c1ccc3c(c1)OC(c1ccccc1)CC3)nc2[C@H]1C[C@@H](Cn2ccnc2CO)C1 (relative stereo) [Example 39, (1-{cis-3-[8-Amino-1-(2-phenyl-chroman-7-yl)-imidazo[1,5-a]pyrazin-3-yl]-cyclobutylmethyl}-1H-imidazol-2-yl)-methanol] has an IC50 of 218 nM. In the case of Nc1ncnc2c1c(-c1ccc3c(c1)OC(c1ccccc1)CC3)cn2[C@H]1C[C@@](O)(CN2CCS(=O)(=O)CC2)C1 (stereo partly shown) [Example 45, (E)-3-[4-Amino-5-(2-phenyl-chroman-7-yl)-pyrrolo[2,3-d]pyrimidin-7-yl]-1-(1,1-dioxothiomorpholin-4-ylmethyl)-cyclobutanol], the IC50 is reported as less than 5 nM. Molecule Nc1ncnc2c1c(-c1ccc3c(c1)OC(c1ccccc1)CC3)cn2[C@H]1C[C@@H](CN2CCS(=O)(=O)CC2)C1 (mixture of isomers) [Example 6, (R,S)-7-[cis-3-(1,1-Dioxo-thiomorpholin-4-ylmethyl)-cyclobutyl]-5-(2-phenyl-chroman-7-yl)-7H-pyrrolo[2,3-d]pyrimidin-4-ylamine] has an IC50 of 3 nM. For “(R,S)—(Z)-3-[8-Amino-1-(2-phenyl-chroman-7-yl)-imidazo[1,5-a]pyrazin-3-yl]-1-hydroxymethyl-cyclobutanol and (R,S)-(E)-3-[8-amino-1-(2-phenyl-chroman-7-yl)-imidazo[1,5-a]pyrazin-3-yl]-1-hydroxymethyl-cyclobutanol [Example 5]”, the IC50 was 100 nM. With Nc1ncnc2c1c(-c1ccc3c(c1)OC(c1ccccc1)CC3)cn2[C@H]1C[C@@H](O)C1 (relative stereo) [Example 48, cis-3-[4-Amino-5-(2-phenyl-chroman-7-yl)-pyrrolo[2,3-d]pyrimidin-7-yl]-cyclobutanol] the IC50 was 88 nM. Nc1ncnc2c1c(-c1ccc3c(c1)OC(c1ccccc1)CC3)cn2[C@H]1C[C@@]2(CNC(=O)O2)C1 (stereo partly shown) [Example 44, (E)-2-[4-Amino-5-(2-phenyl-chroman-7-yl)-pyrrolo[2,3-d]pyrimidin-7-yl]-5-oxa-7-aza-spiro[3.4]octan-6-one] gave an IC50 of 16 nM. For Nc1ncnc2c1c(-c1ccc3c(c1)O[C@H](c1ccccc1)CC3)cn2[C@H]1C[C@@H](CO)C1 [Example 11, {cis-3-[4-Amino-5-((S)-2-phenyl-chroman-7-yl)-pyrrolo[2,3-d]pyrimidin-7-yl]-cyclobutyl}-methanol], the IC50 was 19 nM. Nc1ncnc2c1c(-c1ccc3c(c1)OC(c1ccccc1)CC3)cn2[C@H]1C[C@@](O)(CO)C1 (mixture of isomers) [Example 8, (R,S)-(E)-3-[4-Amino-5-(2-phenyl-chroman-7-yl)-pyrrolo[2,3-d]pyrimidin-7-yl]-1-hydroxymethyl-cyclobutanol] showed an IC50 of 95 nM. Work on Nc1ncnc2c1c(-c1ccc3c(c1)OC(c1ccccc1)CC3)cn2[C@H]1C[C@](O)(CO)C1 (mixture of isomers) [Example 9, (R,S)—(Z)-3-[4-amino-5-(2-phenyl-chroman-7-yl)-pyrrolo[2,3-d]pyrimidin-7-yl]-1-hydroxymethyl-cyclobutanol] yielded an IC50 of 158 nM.
